Data on 30 compounds can be found in US8674136B2, “Aromatic butan-2-ol compounds and preparation and uses thereof” (Institute of Pharmacology and Toxicology Academy of …, priority 2010, dated 2014).

By MIC is commonly meant the lowest concentration found to suppress growth.

For the assay, the system named is Standard Strain H37Rv of mycobacterium tuberculosis. The assay can be described thus: MIC against standard strain H37Rv by Microplate Alamar Blue Assay (MABA). The assay is classed as cell-based. The following applies: M. tuberculosis H37Rv, 7H9 medium, 37° C. A general note: Resazurin is reduced to fluorescent resorufin, in cell work by metabolically active cells.

[1] abbreviates: Mycobacterium tuberculosis, H37RV, read-out: MIC.

In brackets after ≈: the same amount, converted by molar mass. Several values for one entry are separate records, joined by “and”; a condition that tells them apart may be missing. Identical values can stand only once. Like-named read-outs stand apart in the source and are kept apart here. Bounds are passed on as bounds.

With `COc1c(C(c2ccccc2)C(O)(CCN(C)C)c2cccc3ccccc23)cc2cc(Br)ccc2c1Br` (stereo not drawn) [Compound 31, 1-phenyl-2-(1-naphthyl)-1-[2-(4,7-dibromo-3-methoxy)naphthyl]-4-(N,N-dimethylamino)-butan-2-ol], the MIC stood at 0.124 µg/mL (≈ 0.196 µM).
Turning to `COc1cc2ccc(Br)cc2cc1C(c1ccc(Cl)cc1)C(O)(CCN(C)C)c1ccc(Br)cc1` (stereo not drawn) [Compound 7, 1-(4-chlorophenyl)-2-(4-bromophenyl)-1-[2-(7-bromo-3-methoxy)naphthyl]-4-(N,N-dimethylamino)-butan-2-ol], under setting [1], the minimum inhibitory concentration (MIC) was found to be 1 µg/mL (≈ 1.62 µM).
With `COc1cc2ccc(Br)cc2cc1C(c1ccc(Cl)cc1)C(O)(CCN(C)C)c1ccccc1Br` (stereo not drawn) [Compound 22, 1-(4-chlorophenyl)-2-(2-bromophenyl)-1-[2-(7-bromo-3-methoxy)naphthyl]-4-(N,N-dimethylamino)-butan-2-ol], the MIC came out at 0.111 µg/mL (≈ 0.18 µM).
The compound `COc1cc2ccc(Br)cc2cc1C(c1ccc(Cl)cc1)C(O)(CCN(C)C)c1ccccc1` (stereo not drawn) [Compound 18, 1-(4-chlorophenyl)-2-phenyl-1-[2-(7-bromo-3-methoxy)naphthyl]-4-(N,N-dimethylamino)-butan-2-ol] displayed an MIC of 0.109 µg/mL (≈ 0.202 µM).
The same measure, in the same setting: as for `COc1cc2ccc(Br)cc2cc1C(c1cccc(Cl)c1)C(O)(CCN(C)C)c1cccc2ccccc12` (stereo not drawn) [Compound 35, 1-(3-chlorophenyl)-2-(1-naphthyl)-1-[2-(7-bromo-3-methoxy)naphthyl]-4-(N,N-dimethylamino)-butan-2-ol], the figure is 0.114 µg/mL (≈ 0.194 µM).
Take `COc1cc2ccc(Br)cc2cc1C(c1ccc(Cl)cc1)C(O)(CCN(C)C)c1ccccc1Br` (stereo not drawn) [Compound 21, 1-(4-chlorophenyl)-2-(2-bromophenyl)-1-[2-(7-bromo-3-methoxy)naphthyl]-4-(N,N-dimethylamino)-butan-2-ol]: the MIC was found to be 2.000 µg/mL (≈ 3.24 µM).
As to `COc1c(C(c2ccccc2)C(O)(CCN(C)C)c2cccc3ccccc23)cc2cc(Br)ccc2c1Br` (stereo not drawn) [Compound 32, 1-phenyl-2-(1-naphthyl)-1-[2-(4,7-dibromo-3-methoxy)naphthyl]-4-(N,N-dimethylamino)-butan-2-ol], the MIC is 1.000 µg/mL (≈ 1.58 µM).
Turning to `CN(C)CCC(O)(c1cccc2ccccc12)C(c1ccccc1)c1cc2cc(Br)ccc2c(Br)c1O` (stereo not drawn) [Compound 33, 1,6-dibromo-3-[1-phenyl 2-(1-naphthyl)-2-hydroxy-4-(N,N-dimethylamino)]butyl-2-naphthol], the MIC was 1.000 µg/mL (≈ 1.61 µM).
The compound `COc1cc2ccc(Br)cc2cc1C(c1ccccc1)C(O)(CCN(C)C)c1cccc(Br)c1` (stereo not drawn) [Compound 11, 1-phenyl-2-(3-bromophenyl)-1-[2-(7-bromo-3-methoxy)naphthyl]-4-(N,N-dimethylamino)-butan-2-ol] returned an MIC of 0.103 µg/mL (≈ 0.177 µM).
Compound `COc1cc2ccccc2cc1C(c1ccc(Cl)cc1)C(O)(CCN(C)C)c1cccc2ccccc12` (single isomer, unassigned) [Compound 5, 1-(4-chlorophenyl)-2-(1-naphthyl)-1-[2-(3-methoxy)naphthyl]-4-(N,N-dimethylamino)-butan-2-ol] displayed an MIC of 3.052 µg/mL (≈ 5.98 µM).
As for `COc1cc2ccc(Br)cc2cc1C(c1ccccc1)C(O)(CCN(C)C)c1ccccc1Br` (stereo not drawn) [Compound 23, 1-phenyl-2-(2-bromophenyl)-1-[2-(7-bromo-3-methoxy)naphthyl]-4-(N,N-dimethylamino)-butan-2-ol], the MIC is over 32 µg/mL.
On the same count and under the same terms, the same measure for `COc1cc2ccc(Br)cc2cc1C(c1ccccc1)C(O)(CCN(C)C)c1ccc(Br)cc1` (stereo not drawn) [Compound 9, 1-phenyl-2-(4-bromophenyl)-1-[2-(7-bromo-3-methoxy)naphthyl]-4-(N,N-dimethylamino)-butan-2-ol]: 0.118 µg/mL (≈ 0.202 µM).
`COc1cc2ccc(Br)cc2cc1C(c1ccc(Cl)cc1)C(O)(CCN(C)C)c1cccc(Br)c1` (stereo not drawn) [Compound 15, 1-(4-chlorophenyl)-2-(3-bromophenyl)-1-[2-(7-bromo-3-methoxy)naphthyl]-4-(N,N-dimethylamino)-butan-2-ol] displayed an MIC of 2.166 µg/mL (≈ 3.51 µM).
On the same count and under the same terms, as for `COc1cc2ccc(Br)cc2cc1C(c1ccccc1)C(O)(CCN(C)C)c1ccccc1` (stereo not drawn) [Compound 19, 1,2-diphenyl-1-[2-(7-bromo-3-methoxy)naphthyl]-4-(N,N-dimethylamino)-butan-2-ol], the figure is 0.206 µg/mL (≈ 0.408 µM).
In the case of `COc1cc2ccc(Br)cc2cc1C(c1ccc(C)cc1)C(O)(CCN(C)C)c1cccc2ccccc12` (stereo not drawn) [Compound 29, 1-(4-methylphenyl)-2-(1-naphthyl)-1-[2-(7-bromo-3-methoxy)naphthyl]-4-(N,N-dimethylamino)-butan-2-ol], the MIC is 0.222 µg/mL (≈ 0.39 µM).
In the case of `COc1cc2ccc(Br)cc2cc1C(c1ccccc1)C(O)(CCN(C)C)c1cccc2ccccc12` (stereo not drawn) [Compound 26, 1-phenyl-2-(1-naphthyl)-1-[2-(7-bromo-3-methoxy)naphthyl]-4-(N,N-dimethylamino)-butan-2-ol], the MIC came out at 1.977 µg/mL (≈ 3.57 µM).
With `COc1cc2ccccc2cc1C(c1ccc(Cl)cc1)C(O)(CCN(C)C)c1cccc2ccccc12` (single isomer, unassigned) [Compound 6, 1-(4-chlorophenyl)-2-(1-naphthyl)-1-[2-(3-methoxy)naphthyl]-4-(N,N-dimethylamino)-butan-2-ol], the MIC stood at 1.454 µg/mL (≈ 2.85 µM).
In the case of `COc1cc2ccc(Br)cc2cc1C(c1ccc(Cl)cc1)C(O)(CCN(C)C)c1cccc2ccccc12` (single isomer, unassigned) [Compound 3, 1-(4-chlorophenyl)-2-(1-naphthyl)-1-[2-(7-bromo-3-methoxy)naphthyl]-4-(N,N-dimethylamino)-butan-2-ol], the MIC worked out at 2.883 µg/mL (≈ 4.89 µM).
Take `COc1cc2ccccc2cc1C(c1ccc(Cl)cc1)C(O)(CCN(C)C)c1ccc(F)cc1F` (stereo not drawn) [Compound 13, 1-(4-chlorophenyl)-2-(2,4-difluorophenyl)-1-[2-(3-methoxy)naphthyl]-4-(N,N-dimethylamino)-butan-2-ol]: the MIC under setting [1] turned out to be 1 µg/mL (≈ 2.02 µM).
`COc1cc2ccc(Br)cc2cc1C(c1ccccc1)C(O)(CCN(C)C)c1ccc(Br)cc1` (stereo not drawn) [Compound 10, 1-phenyl-2-(4-bromophenyl)-1-[2-(7-bromo-3-methoxy)naphthyl]-4-(N,N-dimethylamino)-butan-2-ol]: the MIC was 2.000 µg/mL (≈ 3.43 µM).
Turning to `COc1cc2ccc(Br)cc2cc1C(c1cccc(C)c1)C(O)(CCN(C)C)c1cccc2ccccc12` (stereo not drawn) [Compound 37, 1-(3-methylphenyl)-2-(1-naphthyl)-1-[2-(7-bromo-3-methoxy)naphthyl]-4-(N,N-dimethylamino)-butan-2-ol], the MIC is 0.180 µg/mL and 0.258 µg/mL.
Same read-out and setting: the same measure for `COc1cc2ccc(Br)cc2cc1C(c1ccccc1)C(O)(CCN(C)C)c1ccccc1Br` (stereo not drawn) [Compound 24, 1-phenyl-2-(2-bromophenyl)-1-[2-(7-bromo-3-methoxy)naphthyl]-4-(N,N-dimethylamino)-butan-2-ol]: 0.224 µg/mL (≈ 0.384 µM).
On the same count and under the same terms, the same measure for `COc1cc2ccc(Br)cc2cc1C(c1ccc(Cl)cc1)C(O)(CCN(C)C)c1ccccc1` (stereo not drawn) [Compound 17, 1-(4-chlorophenyl)-2-phenyl-1-[2-(7-bromo-3-methoxy)naphthyl]-4-(N,N-dimethylamino)-butan-2-ol]: 2.000 µg/mL (≈ 3.71 µM).
Compound `COc1cc2ccc(Br)cc2cc1C(c1ccccc1)C(O)(CCN(C)C)c1ccccc1` (stereo not drawn) [Compound 20, 1,2-diphenyl-1-[2-(7-bromo-3-methoxy)naphthyl]-4-(N,N-dimethylamino)-butan-2-ol] yielded an MIC of 2.000 µg/mL (≈ 3.96 µM).
Take `COc1cc2ccc(Br)cc2cc1C(c1ccc(Cl)cc1)C(O)(CCN(C)C)c1ccc(Br)cc1` (stereo not drawn) [Compound 8, 1-(4-chlorophenyl)-2-(4-bromophenyl)-1-[2-(7-bromo-3-methoxy)naphthyl]-4-(N,N-dimethylamino)-butan-2-ol]: the MIC was found to be 0.956 µg/mL (≈ 1.55 µM).
In the case of `CN(C)CCC(O)(c1cccc2ccccc12)C(c1ccccc1)c1cc2cc(Br)ccc2c(Br)c1O` (stereo not drawn) [Compound 34, 1,6-dibromo-3-[1-phenyl 2-(1-naphthyl)-2-hydroxy-4-(N,N-dimethylamino)]butyl-2-naphthol], the MIC was determined as 4.000 µg/mL (≈ 6.46 µM).
Consider `COc1cc2ccc(Br)cc2cc1C(c1ccccc1)C(O)(CCN(C)C)c1cccc(Br)c1` (stereo not drawn) [Compound 12, 1-phenyl-2-(3-bromophenyl)-1-[2-(7-bromo-3-methoxy)naphthyl]-4-(N,N-dimethylamino)-butan-2-ol], for which the MIC turned out to be 1.000 µg/mL (≈ 1.71 µM).
The compound `COc1cc2ccccc2cc1C(c1ccccc1)C(O)(CCN(C)C)c1cccc2ccccc12` (stereo not drawn) [Compound 2, 1-phenyl-2-(1-naphthyl)-1-[2-(3-methoxy)-naphthyl]-4-(N,N-dimethylamino)-butan-2-ol] displayed an MIC of 3.178 µg/mL (≈ 6.68 µM).
Turning to `COc1cc2ccccc2cc1C(c1ccccc1)C(O)(CCN(C)C)c1cccc2ccccc12` (stereo not drawn) [Compound 1, 1-phenyl-2-(1-naphthyl)-1-[2-(3-methoxy)-naphthyl]-4-(N,N-dimethylamino)-butan-2-ol], the MIC under setting [1] came out at 2.05 µg/mL (≈ 4.3 µM).
`COc1cc2ccc(Br)cc2cc1C(c1cccc(Cl)c1)C(O)(CCN(C)C)c1cccc2ccccc12` (stereo not drawn) [Compound 36, 1-(3-chlorophenyl)-2-(1-naphthyl)-1-[2-(7-bromo-3-methoxy)naphthyl]-4-(N,N-dimethylamino)-butan-2-ol]: the MIC is 3.773 µg/mL (≈ 6.41 µM).
